Experiments:
[1] = pH-stat fluorescent transport assay with oligophenoxyacetamides (HPTS-loaded liposomes); type: biochemical
Description: FIGS. 1A and 1B are derived from of pH-stat fluorescent assays with oligophenoxyacetamide compounds 1-6 described herein. Suspensions of EYPC LUVs containing the pH sensitive dye pyranine (ex 405 nm and 460 nm em 510 nm) in a phosphate buffer were used (0.5 mM of lipid, 10 mM NanH3-nPO4 n=1, 2, pH 6.4 100 mM NaCl inside and outside) (A) illustrates initial pseudo-first order rate constants in the presence of 5 μm of ionophores 1-6 (1 mol % injection of 20 μl of 0.5 mM DMSO solution of 1-6 into 1.9 mL of vesicular suspension was followed by injection of 21 μl of 0.5 M NaOH and final lysis of liposomes with Triton X-100; (B) illustrates initial pseudo-first order rate constants assessed for various concentrations of oligomeric ionophores 2-6. The same experimental protocol as in (A) was used. Legend for traces denotes use of oligocompounds 2, 3, 4, 5, 6.
Liposome Preparation for Fluorimetric Assays. Egg yolk L-α-phosphatidylcholine (EYPC ethanol solution, […], 79 μmol) was dissolved in a CHCl3/MeOH mixture, the solution was evaporated under reduced pressure and the resulting thin film was dried under high vacuum for 2 h. The lipid film was hydrated in 1.2 mL of phosphate buffer (10 mM sodium phosphate, pH=6.4, 75-100 mM MnX, M=N^+, K^+, X=Cl^−, SO4^2−, n=1,2) containing 10 μM HPTS (pyranine, 8-hydroxypyrene-1,3,6-trisulfonic acid trisodium salt) for 40 min. During hydration, the suspension was submitted to 5 freeze-thaw cycle (liquid nitrogen, water at rt). The large multilamellar liposome suspension (1 mL) was submitted to high-pressure extrusion at rt (21 extrusions through a 0.1 μm polycarbonate membrane afforded a suspension of LUVs with an average diameter of 100 nm). The LUV suspension was separated from extravesicular dye by size exclusion chromatography (SEC) (stationary phase: Sephadex G-10, mobile phase: phosphate buffer) and diluted with the same phosphate buffer to give a stock solution with a lipid concentration of 11 mM (assuming 100% of lipid was incorporated into liposomes).
pH-state transport assays. Typically, 100 μL of HPTS-loaded vesicles (stock solution) was suspended in 1.9 mL of the corresponding buffer and placed into a fluorimetric cell. The emission of HPTS at 510 nm was monitored with excitation wavelengths at 403 and 460 nm simultaneously. During the experiment, 20 μL of a 0-10 mM DMSO solution of the compounds of interest was added (through an injection port), followed by injection of 21 μL of 0.5 M aqueous NaOH. […] Maximal possible changes in dye emission were obtained at the end of each experiment by lysis of the liposomes with detergent (40 μL of 5% aqueous Triton X100). The final transport trace was obtained as a ratio of the emission intensities monitored at 460 and 403 nm and normalized to 100% of transport. Pseudo-first order rate constants were calculated from slopes of the plot of In([H^+ins]−[H^+out]) versus time, here [H^+ins] and [H^+out] are the intravesicular and extravesicular proton concentrations, respectively. The [H^+out] was assumed to remain constant over the course of the experiment, while [H^+ins] values were calculated for each point from the HPTS emission intensities according to the calibration equation pH=1.1684·log(Io/Il)+6.9807, where Io is the emission intensity with excitation at 460 nm and Il is emission intensity with excitation at 403 nm. The calibration was performed by measuring the HPTS emission intensities and the pH values of a […] HPTS solution in 10 mM phosphate buffer containing 100 mM NaCl (see FIG. s3). The absolute values for rate constants varied depending on the age of the vesicular solution and the actual stock solution of liposomes used.

[2] = 1H NMR binding experiment in CDCl3 with n-Bu4-NCl
Description: FIG. 7 illustrates a series of […] spectra (400 mHz, CDCl3, 22° C.) of calixarene tetrabutylamide in the presence of different species: (A) the compound alone (5 mm); (B) the compound with 1 equiv. of Bu4 NCl; (C) the compound after washing CDCl3 solution of the compound with an aqueous solution of 0.5 m HCl; (D) after washing CDCl3 solution of the compound with an aqueous solution of 0.5 M H2SO4.
To obtain evidence for Cl^− binding by 2, ^1H NMR experiments were run in CDCl3 using n-Bu4-NCl and HCl as Cl^− sources. Anion receptors usually show chemical shift perturbation upon anion complexation, particularly for amide NH protons that hydrogen bond to the anion. […] Calix[4]arene tetrabutylamide 2 does, however, bind HCl. Thus, shaking a CDCl3 solution of 2 with aqueous HCl led to disappearance of the amide NH proton and a significant upfield shift of the […] protons (FIG. 4c).

Row | SMILES | relative transport activity within the series 1-6 ([1]; 100 mM NaCl inside and outside) | transport activity ([1]; 100 mM NaCl inside and outside, concentrations as low as 0.5 mol % (5 μm)) | transport activity in liposomes symmetrically loaded with sodium sulfate ([1]; 10 mol % (50 μm)) | binding of the naked Cl− anion [2]
1 | CCCCNC(=O)COc1ccccc1Cc1cccc(Cc2ccccc2OCC(=O)NCCCC)c1OCC(=O)NCCCC [trimer 3, Tris-(N-butyl-2-phenoxyacetamide)] | generally the most active | rapid exchange between extra- and intravesicular electrolytes | no transport activity was detected | –
2 | CCCCNC(=O)COc1c2cccc1Cc1cccc(c1OCC(=O)NCCCC)Cc1cccc(c1OCC(=O)NCCCC)Cc1cccc(c1OCC(=O)NCCCC)C2 [calix[4]arene tetrabutylamide 2, Calix[4]arene tetrabutylamide] | – | – | – | does not bind strongly
